The values that follow come from PubChem BioAssay (NCI).

Some test systems named below: SNB-75 CNS; MDA-MB-231 breast; HCT-116 colon; EKVX NSCLC; BT-549 breast; OVCAR-3 ovarian; OVCAR-8 ovarian; HCC-2998 colon.
What all share (assay): NCI tumour cell line growth inhibition, 48 h

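The compound was tested at five concentrations on cells cultured in 96-well plates, with a 48-hour exposure period. GI50: concentration for 50% inhibition of growth. At the TGI there is no net growth.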

Regarding `CC(=O)OCC(=O)[C@@]12OC(C)(C)O[C@@H]1C[C@H]1[C@@H]3CC=C4C[C@@H](O)CC[C@]4(C)[C@H]3CC[C@@]12C`, the TGI is 29.4 µM in the experiment on SNB-75 CNS; over 100 µM in the experiment with MDA-MB-231 breast; over 100 µM in the experiment on HCT-116 colon; over 100 µM in the experiment on EKVX NSCLC; 96.4 µM with BT-549 breast; over 100 µM in the experiment with OVCAR-3 ovarian. This compound came in with a TGI in the experiment with OVCAR-8 ovarian of over 100 µM.

Consider `O=C1C2C(c3ccccc3)NC(c3ccccc3)C1C(c1ccccc1)NC2c1ccccc1` (stereo not given), for which the TGI in the experiment with SNB-75 CNS, in the experiment on MDA-MB-231 breast, in the experiment with HCT-116 colon, in the experiment on EKVX NSCLC, with BT-549 breast and in the experiment with OVCAR-3 ovarian was over 100 µM in each case. For the same compound, in the experiment with OVCAR-8 ovarian, the TGI was over 100 µM.

Turning to `O=c1oc2cc(N=Cc3ccc4c(c3)OCO4)ccc2c2ccccc12`, the TGI is 39.7 µM in the experiment with SNB-75 CNS; over 100 µM in the experiment on MDA-MB-231 breast; over 100 µM in the experiment with HCT-116 colon; 50.6 µM in the experiment on EKVX NSCLC; over 100 µM in the experiment on BT-549 breast; over 100 µM with OVCAR-3 ovarian. The compound further yielded a TGI with OVCAR-8 ovarian of over 100 µM.

Turning to `COc1ccc(S(=O)(=O)Nc2cc(/C=C\c3cc(OC)c(OC)c(OC)c3)ccc2OC)cc1`, the GI50 with SNB-75 CNS is 70.8 nM; with MDA-MB-231 breast it was 399 nM; in the experiment on HCT-116 colon, 79.7 nM; in the experiment on BT-549 breast, 197 nM; in the experiment on OVCAR-3 ovarian, 53 nM; in the experiment on HCC-2998 colon, 442 nM. Moreover, the GI50 with OVCAR-8 ovarian is 276 nM. For the same compound, the TGI in the experiment on SNB-75 CNS is 91.4 µM; in the experiment on MDA-MB-231 breast, over 100 µM; in the experiment with HCT-116 colon, over 100 µM; with BT-549 breast, over 100 µM; in the experiment with OVCAR-3 ovarian, over 100 µM; with HCC-2998 colon it was over 100 µM. The TGI in the experiment with OVCAR-8 ovarian is over 100 µM.

`NC1=C(c2nc(-c3ccccc3)cs2)C(c2ccc(Br)cc2)c2c(c3ccccc3oc2=O)O1` (stereo not given): the GI50 was 2.39 µg/mL in the experiment with SNB-75 CNS; 39.2 µg/mL with MDA-MB-231 breast; 79.6 µg/mL with HCT-116 colon; 50.2 µg/mL in the experiment with EKVX NSCLC; over 150 µg/mL in the experiment on OVCAR-3 ovarian; 130 µg/mL in the experiment with HCC-2998 colon. The GI50 with OVCAR-8 ovarian is 112 µg/mL. Also, the TGI with SNB-75 CNS is 36.7 µg/mL; with MDA-MB-231 breast, over 150 µg/mL; with HCT-116 colon it was over 150 µg/mL; in the experiment on EKVX NSCLC it was over 150 µg/mL; with OVCAR-3 ovarian, over 150 µg/mL; in the experiment on HCC-2998 colon it was over 150 µg/mL. In the experiment on OVCAR-8 ovarian, this compound yielded a TGI of over 150 µg/mL.

As to `COc1cc(Cl)cc(-c2nn(-c3cccc(NC(=O)Nc4cc(C(F)(F)F)cc(C(F)(F)F)c4)c3)cc2-c2ccncc2)c1`, the GI50 was 1180 nM in the experiment on SNB-75 CNS; 726 nM with MDA-MB-231 breast; 356 nM in the experiment on HCT-116 colon; 2340 nM in the experiment on BT-549 breast; 364 nM in the experiment with OVCAR-3 ovarian; 963 nM with HCC-2998 colon. Moreover, the GI50 with OVCAR-8 ovarian is 390 nM. Besides, the TGI is 6.86 µM with SNB-75 CNS; 2.26 µM with MDA-MB-231 breast; 1.46 µM with HCT-116 colon; 6.78 µM in the experiment with BT-549 breast; 2.04 µM with OVCAR-3 ovarian; 5.42 µM in the experiment on HCC-2998 colon. Further, in the experiment on OVCAR-8 ovarian, the TGI amounted to 2.46 µM.

For `COC(=O)C1=C(C(=O)OC)SC(=C(Cl)C(=S)Nc2ccccc2O)S1`, the GI50 with SNB-75 CNS is 33700 nM; in the experiment on MDA-MB-231 breast it was 10600 nM; with HCT-116 colon, 143 nM; in the experiment on BT-549 breast it was 2340 nM; in the experiment with OVCAR-3 ovarian it was 7410 nM; with OVCAR-8 ovarian it was 25300 nM. For the same compound, the TGI with SNB-75 CNS is over 50 µM; in the experiment on MDA-MB-231 breast, 25.9 µM; in the experiment with HCT-116 colon it was over 50 µM; in the experiment with BT-549 breast, 35.5 µM; in the experiment with OVCAR-3 ovarian, 22.8 µM; with OVCAR-8 ovarian, over 50 µM.

Turning to `O=Cc1ccccc1B(O)O`, the TGI in the experiment on SNB-75 CNS is over 100 µM; with MDA-MB-231 breast it was over 100 µM; in the experiment with HCT-116 colon, over 100 µM; with BT-549 breast it was 95.9 µM; with OVCAR-3 ovarian, over 100 µM; in the experiment on OVCAR-8 ovarian, over 100 µM.

Take `COc1cc(/C=N/NC(=O)c2cnn3c2NC(c2ccccc2)C3)ccc1Oc1ccccc1` (stereo not given): the GI50 was 1300 nM in the experiment on SNB-75 CNS; 1660 nM with MDA-MB-231 breast; 2030 nM with EKVX NSCLC; 864 nM in the experiment on BT-549 breast; 346 nM in the experiment on OVCAR-3 ovarian; 3600 nM with HCC-2998 colon. Also, the GI50 in the experiment with OVCAR-8 ovarian is 2570 nM. In addition, the TGI with SNB-75 CNS was 3.41 µM; with MDA-MB-231 breast, 5.03 µM; in the experiment on EKVX NSCLC it was 14.3 µM; in the experiment with BT-549 breast, 3.16 µM; in the experiment with OVCAR-3 ovarian it was 1.31 µM; in the experiment with HCC-2998 colon it was 30 µM. For the same compound, the TGI with OVCAR-8 ovarian amounted to 12.2 µM.

As to `Cc1ccc2nc(-c3ccccc3)c(N=O)n2c1`, the TGI in the experiment on SNB-75 CNS is over 100 µM; in the experiment with MDA-MB-231 breast it was 73.1 µM; in the experiment with HCT-116 colon it was over 100 µM; with EKVX NSCLC, 79.5 µM; with BT-549 breast, over 100 µM; with OVCAR-3 ovarian, over 100 µM. The same compound had a TGI in the experiment with OVCAR-8 ovarian of over 100 µM.

`OC(CNCC1CCCO1)Cn1c2ccc(Cl)cc2c2cc(Cl)ccc21` (stereo not given): the GI50 with SNB-75 CNS was 1390 nM; with MDA-MB-231 breast, 1750 nM; with HCT-116 colon, 1730 nM; in the experiment on BT-549 breast, 5980 nM; in the experiment with OVCAR-3 ovarian, 1820 nM; in the experiment on HCC-2998 colon, 1710 nM. Moreover, the GI50 with OVCAR-8 ovarian is 2020 nM. The TGI in the experiment with SNB-75 CNS worked out at 2.87 µM; in the experiment with MDA-MB-231 breast, 3.5 µM; in the experiment on HCT-116 colon, 3.12 µM; with BT-549 breast it was 27.1 µM; in the experiment with OVCAR-3 ovarian, 3.28 µM; in the experiment with HCC-2998 colon, 3.15 µM. Also, in the experiment with OVCAR-8 ovarian, the TGI worked out at 4.22 µM.

For `O=C(O)C1C(C(=O)O)C23CC2(C(=O)O)C2(C(=O)O)CCC3=C3CCCC312` (stereo not given), the TGI amounted to 93.5 µM with SNB-75 CNS; 41 µM in the experiment on MDA-MB-231 breast; 66.7 µM with HCT-116 colon; 54.3 µM with EKVX NSCLC; 69.9 µM in the experiment on BT-549 breast; 11.7 µM in the experiment with OVCAR-3 ovarian. Also, the TGI in the experiment on OVCAR-8 ovarian amounted to 64.4 µM.

As for `CN(C)CCCN1c2ccccc2C(C)(C)c2ccccc21`, the TGI in the experiment with SNB-75 CNS turned out to be 24.4 µM; with MDA-MB-231 breast, 27.8 µM; with HCT-116 colon it was 27.9 µM; in the experiment with EKVX NSCLC, 32.6 µM; in the experiment with BT-549 breast, 28.1 µM; with OVCAR-3 ovarian it was 28.9 µM. The same compound registered a TGI in the experiment on OVCAR-8 ovarian of 29.8 µM.
